Measured values as given in patent US8106035B2, “25-SO2-substituted analogs of 1μ,25-dihydroxyvitamin D3” (Cytochroma Inc., priority 2002, dated 2012).

Tests used:
[1] = system: normal human epidermal keratinocytes (NHEK); experiment: Human epidermal keratinocyte proliferation (HEK) assay, [3H]-thymidine; format: cell-based; conditions: together with calcitriol; 1, 10, 50 nM compound; three days
Experimental: (§1) NHEK were treated with specified concentrations of calcitriol and compound Va for three days. Cells were then incubated with [^3H]-thymidine for 18 h at 37° C. in a humidified atmosphere containing 5% CO2. Plates were harvested and radioactivity measured. Dose response curves in the absence of Va, 1 nM Va, 10 nM Va and 50 nM Va are shown.
Human Epidermal Keratinocyte Proliferation (HEK) Assay
• 1. HEK cell media • Supplement KGM media with additional reagents provided in the bullet kit as per supplier's instructions. • Add calcium chloride to final concentration of 0.3 mM. • 2. Calcitriol dilutions
(iii) Procedure: • 2. Cell culture • Thaw one vial of HEK cells containing at least 500 K, and divide into 5 25 cm^2 flasks with 5 ml HEK cell media. 24 h later, remove media and replenish with 5 ml fresh media. Change media again 48 h later. • 3. Preparation of cell suspension • On the day of the assay, wash the monolayer of HEK cells once with 1×PBS buffer (provided in reagent pack) and then trypsinize for 5 min at 37° C. Add trypsin neutralizing solution (provided in reagent pack). Collect cells into tube, centrifuge cells (500×g, 5 min) and resuspend in HEK cell media. Count cells and adjust density to 150,000 cells/ml. Dilute cells further 1:30 with HEK cell media. • 2. Cell plating • Add 150 μl of cell suspension to appropriately labelled wells of a 96-well plate. Incubate plate for 48 h at 37° C. in a humidified atmosphere containing 5% CO2 for adherence of cells to wells. • 3. Compound addition • Add 25 μl of calcitriol (10^−6 to 10^−11 M, final) and add 25 μl of substrate (10^−7 to 10^−10 M, final) and incubate for 32 hours at 37° C. in a humidified atmosphere containing 5% CO2. • 4. Cell harvesting and counting • Add 0.2 μCi/well of [^3H]-thymidine in 20 μl of HEK cell media to each well. Incubate plates for 18 h at 37° C. in a humidified atmosphere containing 5% CO2. Aspirate media and wash with 1×PBS. Trypsinize cells for 30 min at 37° C. in a humidified atmosphere containing 5% CO2. Harvest cells onto filter plates using Tomtec cell harvester as per manufacturer's instructions. Add 25 μl scintillation fluid per well. Measure radioactivity using a scintillation counter. All values were normalized for background. Results; See FIGS. 1-4

MCF-7 cells = experiment: [3H]-thymidine proliferation assay with MCF-7 cells; format: cell-based; conditions: together with calcitriol; 1, 10, 50 nM compound; three days
Experimental: as §1, with “MCF-7 cells” for “NHEK”, “6” for “18”
[^3H]-thymidine Proliferation Assay with MCF-7 Cells
• 1. Preparation of cell suspension • When MCF-7 cells are 70-80% confluent, aspirate growth media. Wash the cells with 1×PBS. Trypsinize with trypsin-EDTA from the plate, collect cells from the tissue culture flask, centrifuged (500×g, 5 min) and resuspended in growth media. • 2. Cell plating. • Count the cells and adjust the cell density to 25, 000/ml. Add 200 μl per well in a 96 well plate. Incubate plate for 24 h at 37° C. in a humidified atmosphere plus 5% CO2. Aspirate used media and replace with […] per well with proliferation media. • 3. Substrate addition. • Add 25 μl of 1α,25(OH)2D3 (final concentration 10^−6 M, 10^−7 M, 10^−8 M, 10^−9 M, 10^−10 M, 10^−11 M) into each designated well. Add 25 μl of Substrate (final concentration 10^−7 M, 5×10^−8 M, 10^−8 M or 10^−9 M) into each designated well. Incubate plates for 3 days at 37° C. in a humidified atmosphere plus 5% CO2. • 4. ^3H-Thymidine incorporation. • Add ^3H-thymidine at 0.02 μCi per well and incubate at 37° C. in a humidified atmosphere plus 5% CO2 for 6 h. • 5. Plate Harvesting. • Aspirate all media and wash cells with 1×PBS. Trypsinize cells for 30 min at 37° C. in a humidified atmosphere plus 5% CO2. Harvest cells onto a 96 well filter plate (Millipore) using a Tomtec Cell Harvestor, according to manufacturers instructions. • 6. Scintillation Counting. • Add 25 μt of scintillation fluid per well. Count the plate using a scintillation counter. Results: See FIGS. 5-9.

SCC-25 cells = experiment: [3H]-thymidine proliferation assay with SCC-25 cells; format: cell-based; conditions: together with calcitriol; 1, 10, 50 nM compound; three days
Experimental: as §1, with “SCC-25 cells” for “NHEK”, “6” for “18”
[^3H]-thymidine Proliferation Assay with SCC-25 Cells
• 1. Preparation of cell suspension • When SCC-25 cells are 70-80% confluent, aspirate media. Wash the cells with 1×PBS. Trypsinize with trypsin-EDTA from the plate, collect cells from the tissue culture flask, centrifuged (500×g, 5 min) and resuspended in media. • 2. Cell plating. • Count the cells and adjust the cell density to 10,000/ml. Add 200 μl per well in a 96 well plate. Incubate plate for 24 h at 37° C. in a humidified atmosphere plus 5% CO2. Aspirate used media and replace with 150 μl per well with media. • 3. Compound addition. • Add 25 μl of 1α,25(OH)2D3 (final concentration 10^−6 M, 10^−7 M, 10^−8 M, 10^−9 M, 10^−10 M, 10^−11 M) into each designated well. Add 25 μL of Substrate (final concentration 10^−7 M, 5×10^−8 M, 10^−8 M or 10^−9 M) into each designated well. Incubate plates for 3 days at 37° C. in a humidified atmosphere plus 5% CO2. • 4. ^3H-Thymidine incorporation. • Add ^3H-thymidine at 0.02 μCi per well and incubate at 37° C. in a humidified atmosphere plus 5% CO2 for 6 h. • 5. Plate Harvesting. • Aspirate all media and wash cells with 1×PBS. Trypsinize cells for 30 min at 37° C. in a humidified atmosphere plus 5% CO2. Harvest cells onto a 96 well filter plate (Millipore) using a Tomtec Cell Harvestor, according to manufacturers instructions. • 6. Scintillation Counting. • Add 25 μl of scintillation fluid per well. Count the plate using a scintillation counter. Results: See FIGS. 10-13.

CYP24 = target: T1, CYP24 (Homo sapiens, UniProt Q07973); experiment: In vitro test for selective inhibition of CYP24 (standard protocol, ketoconazole control); format: biochemical; conditions: in comparison to CYP27A1 and CYP27B1
T1 sequence (Q07973 36-514): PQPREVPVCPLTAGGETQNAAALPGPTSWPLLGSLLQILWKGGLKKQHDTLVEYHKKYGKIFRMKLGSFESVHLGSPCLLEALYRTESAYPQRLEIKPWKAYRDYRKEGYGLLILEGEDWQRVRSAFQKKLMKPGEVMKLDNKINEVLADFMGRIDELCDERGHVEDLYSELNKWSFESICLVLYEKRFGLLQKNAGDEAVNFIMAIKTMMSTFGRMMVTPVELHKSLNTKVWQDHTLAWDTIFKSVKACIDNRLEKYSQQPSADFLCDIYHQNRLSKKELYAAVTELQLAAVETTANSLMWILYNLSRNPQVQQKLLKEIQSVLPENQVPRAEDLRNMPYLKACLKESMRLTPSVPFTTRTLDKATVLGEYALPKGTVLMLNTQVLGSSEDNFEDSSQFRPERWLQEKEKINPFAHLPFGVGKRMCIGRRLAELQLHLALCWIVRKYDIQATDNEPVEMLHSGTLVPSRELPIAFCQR
Experimental: Selectively inhibiting the cytochrome P450 enzymatic pathway, through which 1α,25-dihydroxyvitamin D3 is catabolized (mainly via C-24 hydroxylation), is one important way to prolong the lifetime of this hormone, or analogs thereof. Therefore, the compounds of Formula I were tested in vitro, using a standard protocol, for their ability to inhibit specifically CYP24, an enzyme responsible for 24-hydroxylation of 1α,25-dihydroxyvitamin D3. Antimycotic ketoconazole, a drug used clinically for chemotherapy of human prostate cancer (Trachtenberg, J. et al. J. Urol. 1984, J32, 61-63), was used as a control standard for inhibition of CYP24.

[2] = Antiproliferative activity of the compound of Formula VI (test not specified); format: cell-based; conditions: present invention
From the text: The preparation of the compound of Formula VI was previously reported (Wang, Q. PhD Thesis, 2000, Johns Hopkins University). The ability of the compound of Formula VI to selectively modulate CYP24 activity has not been reported. […] Accordingly, the present invention is the first to find that the compound of Formula VI is useful in the methods of the invention.

SMILES	inhibition of NHEK ([3H]-thymidine incorporation) [1]	inhibition of MCF-7 cells ([3H]-thymidine incorporation) (MCF-7 cells)	inhibition of SCC-25 cells ([3H]-thymidine incorporation) (SCC-25 cells)	selective inhibition of CYP24 activity (CYP24)	antiproliferative activity [2]
C=C1/C(=C\C=C2/CCC[C@]3(C)C([C@H](C)CCC(C)(C)S(=O)(=O)C(C)(C)C)=CCC23)C[C@@H](O)C[C@@H]1O (some centres unmarked) [IVa, 16-ene-24-dimethyl-25-SO2-TB1]	act to inhibit normal human epidermal keratinocytes	act to inhibit MCF-7 cells	act to inhibit SCC-25 cells		
C=C1/C(=C\C=C2/CCC[C@]3(C)[C@@H]([C@H](C)CCCS(=O)(=O)c4ccc(F)cc4)CC[C@@H]23)C[C@@H](O)C[C@@H]1O [Va]	act to inhibit normal human epidermal keratinocytes	act to inhibit MCF-7 cells	act to inhibit SCC-25 cells		
C[C@H](C/C=C(\F)S(=O)(=O)C(C)(C)C)C1=CC[C@H]2/C(=C/C=C3C[C@@H](O)C[C@H](O)C3)CCC[C@]12C [Ia(xi)]		act to inhibit MCF-7 cells			
C=C1/C(=C\C=C2/CCCC3(C)C(C(C)CCC4(S(=O)(=O)C(C)(C)C)CC4)=CCC23)CC(O)CC1O (centres unmarked) [Formula VI]				shows selective inhibition of CYP24 activity	does have antiproliferative activity
C=C1/C(=C\C=C2/CCC[C@@]3(C)C2CC[C@@H]3[C@H](C)CCC2(S(=O)(=O)C(C)(C)C)CC2)C[C@@H](O)C[C@@H]1O (some centres unmarked) [IIa]	act to inhibit normal human epidermal keratinocytes		act to inhibit SCC-25 cells		
C=C1/C(=C\C=C2/CCC[C@]3(C)C([C@H](C)C/C=C(/F)S(=O)(=O)C(C)(C)C)=CC[C@@H]23)C[C@@H](O)C[C@@H]1O [Ib(v)]	act to inhibit normal human epidermal keratinocytes	act to inhibit MCF-7 cells	act to inhibit SCC-25 cells		
